# Source: article PMC3915720 (Biochemistry, 2013)
# Legend:
# Test in all cases: X-ray crystal structure, […] Å
# Assay type in all cases: binding
# [1] = biological target: T1, WlaRD (C8J_1081) (Campylobacter jejuni, UniProt Q9ALS6)
# [2] = biological target: T1, WlaRD (C8J_1081); remark: listed apart in the source
# [3] = biological target: T1, WlaRD (C8J_1081); details: complex with N^5-formyl-THF
structure (smiles),measurement,setting,value
Cc1cn([C@H]2C[C@H](O)[C@@H](COP(=O)(O)OP(=O)(O)O)O2)c(=O)[nH]c1=O [dTDP],"X-ray crystal structure, 1.4 Å (cocrystal)","[1]; complex with N^5-formyl-THF, also with N^10-formyl-THF",that of the enzyme complexed with N^5-formyl-THF and dTDP
Cc1cn([C@H]2C[C@H](O)[C@@H](COP(=O)(O)OP(=O)(O)O[C@H]3O[C@H](C)[C@@H](O)[C@H](NC=O)[C@H]3O)O2)c(=O)[nH]c1=O [dTDP-Qui3NFo],"X-ray crystal structure, 1.9 Å (soak, turnover in crystal)","[2]; complex with THF, subunit B","In subunit B, however, the products THF and dTDP-Qui3NFo were present"
Nc1nc2c(c(=O)[nH]1)N(C=O)[C@@H](CNc1ccc(C(=O)N[C@@H](CCC(=O)O)C(=O)O)cc1)CN2 [N^5-formyl-THF],"X-ray crystal structure, 1.4 Å (cocrystal)","[1]; complex with dTDP, not catalytically competent cofactor analog",that of the enzyme complexed with N^5-formyl-THF and dTDP
Nc1nc2c(c(=O)[nH]1)N[C@@H](CNc1ccc(C(=O)N[C@@H](CCC(=O)O)C(=O)O)cc1)CN2 [THF],"X-ray crystal structure, 1.9 Å (soak, turnover in crystal)",[2]; complex with dTDP-Qui3N (subunit A) or dTDP-Qui3NFo (subunit B),"In subunit A, THF and dTDP-Qui3N were observed"
Cc1cn([C@H]2C[C@H](O)[C@@H](COP(=O)(O)OP(=O)(O)O[C@H]3O[C@H](C)[C@H](O)[C@H](NC=O)[C@H]3O)O2)c(=O)[nH]c1=O [dTDP-Fuc3NFo],"X-ray crystal structure, 1.45 Å (cocrystal)",[3],to form such a complex in the presence of dTDP-Fuc3NFo as shown
